According to PubChem BioAssay AID1963854 (Molecular Pharmacology Branch, DTP, NCI, 2024):

Test system: 186277-243-T-J2-PDC complex spheroid viability
Assay: Anticancer human tumor 186277-243-T-J2-PDC patient-derived colon adenocarcinoma cell line growth inhibition [POLQ]
Details: for IC50: curve of first compound; for viability, T/C: stronger effect = lower value
Outline: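 Three-cell-type spheroids modelling solid tumor plus stroma served as the readout system; POL inhibitors were tested individually and in combination, concentration ranges set by clinical Cmax where known.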

[1] = second compound 0.0316 µM, first compound 0.0316 µM
[2] = second compound 0.0316 µM, first compound 0.1 µM
[3] = second compound 0.0316 µM, first compound 0.316 µM
[4] = second compound 0.0316 µM, first compound 1 µM
[5] = second compound 0.0316 µM, first compound 3.16 µM
[6] = second compound 0.0316 µM, first compound 10 µM
[7] = second compound 0.1 µM, first compound 0.0316 µM
[8] = second compound 0.1 µM, first compound 0.1 µM
[9] = second compound 0.1 µM, first compound 0.316 µM
[10] = second compound 0.1 µM, first compound 1 µM
[11] = second compound 0.1 µM, first compound 3.16 µM
[12] = second compound 0.1 µM, first compound 10 µM
[13] = second compound 0.316 µM, first compound 0.0316 µM
[14] = second compound 0.316 µM, first compound 0.1 µM
[15] = second compound 0.316 µM, first compound 0.316 µM
[16] = second compound 0.316 µM, first compound 1 µM
[17] = second compound 0.316 µM, first compound 3.16 µM
[18] = second compound 0.316 µM, first compound 10 µM
[19] = second compound 1 µM, first compound 0.0316 µM
[20] = second compound 1 µM, first compound 0.1 µM
[21] = second compound 1 µM, first compound 0.316 µM
[22] = second compound 1 µM, first compound 1 µM
[23] = second compound 1 µM, first compound 3.16 µM
[24] = second compound 1 µM, first compound 10 µM
[25] = second compound 3.16 µM, first compound 0.0316 µM
[26] = second compound 3.16 µM, first compound 0.1 µM
[27] = second compound 3.16 µM, first compound 0.316 µM
[28] = second compound 3.16 µM, first compound 1 µM
[29] = second compound 3.16 µM, first compound 3.16 µM
[30] = second compound 3.16 µM, first compound 10 µM
[31] = second compound 10 µM, first compound 0.0316 µM
[32] = second compound 10 µM, first compound 0.1 µM
[33] = second compound 10 µM, first compound 0.316 µM
[34] = second compound 10 µM, first compound 1 µM
[35] = second compound 10 µM, first compound 3.16 µM
[36] = second compound 10 µM, first compound 10 µM
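Note: spheroids exposed to compounds for seven days.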
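Throughout, for viability, T/C: 100% = DMSO vehicle control viability.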

## CC(C)n1c(=O)n(C)c2cnc3cc(F)c(-c4ccc(OCCCN5CCCCC5)nc4)cc3c21 + COC1C(OC(N)=O)C(O)C(Oc2ccc3c(O)c(NC(=O)c4ccc(O)c(CC=C(C)C)c4)c(=O)oc3c2C)OC1(C)C
Second compound 0.0316 µM
  IC50: > 10 µM
Second compound 0.1 µM
  IC50: > 10 µM
Second compound 0.316 µM
  IC50: > 10 µM
Second compound 1 µM
  IC50: > 10 µM
Second compound 3.16 µM
  IC50: > 10 µM
Second compound 10 µM
  IC50: > 10 µM
[1]
  viability, T/C: 104%
[2]
  viability, T/C: 97.4%
[3]
  viability, T/C: 98.1%
[4]
  viability, T/C: 93.2%
[5]
  viability, T/C: 94.3%
[6]
  viability, T/C: 116%
[7]
  viability, T/C: 111%
[8]
  viability, T/C: 87.2%
[9]
  viability, T/C: 103%
[10]
  viability, T/C: 101%
[11]
  viability, T/C: 107%
[12]
  viability, T/C: 92.2%
[13]
  viability, T/C: 99.1%
[14]
  viability, T/C: 98.3%
[15]
  viability, T/C: 96.1%
[16]
  viability, T/C: 97.9%
[17]
  viability, T/C: 114%
[18]
  viability, T/C: 108%
[19]
  viability, T/C: 110%
[20]
  viability, T/C: 93.7%
[21]
  viability, T/C: 86.6%
[22]
  viability, T/C: 107%
[23]
  viability, T/C: 101%
[24]
  viability, T/C: 101%
[25]
  viability, T/C: 98.2%
[26]
  viability, T/C: 95.2%
[27]
  viability, T/C: 105%
[28]
  viability, T/C: 106%
[29]
  viability, T/C: 92.5%
[30]
  viability, T/C: 102%
[31]
  viability, T/C: 102%
[32]
  viability, T/C: 109%
[33]
  viability, T/C: 115%
[34]
  viability, T/C: 115%
[35]
  viability, T/C: 108%
[36]
  viability, T/C: 89.8%

## CCCS(=O)(=O)Nc1ccc(F)c(C(=O)c2c[nH]c3ncc(-c4ccc(Cl)cc4)cc23)c1F + Cc1cccc(N(C)C(=O)C2C(O)CCN2c2nc(C)cc(C(F)(F)F)c2C#N)c1
Second compound 0.0316 µM
  IC50: > 10 µM
Second compound 0.1 µM
  IC50: > 10 µM
Second compound 0.316 µM
  IC50: > 10 µM
Second compound 1 µM
  IC50: > 10 µM
Second compound 3.16 µM
  IC50: > 10 µM
Second compound 10 µM
  IC50: > 10 µM
[1]
  viability, T/C: 83%
[2]
  viability, T/C: 101%
[3]
  viability, T/C: 80.6%
[4]
  viability, T/C: 95.6%
[5]
  viability, T/C: 82.8%
[6]
  viability, T/C: 58%
[7]
  viability, T/C: 87.7%
[8]
  viability, T/C: 91.2%
[9]
  viability, T/C: 79.3%
[10]
  viability, T/C: 92.4%
[11]
  viability, T/C: 76.8%
[12]
  viability, T/C: 56.8%
[13]
  viability, T/C: 85.9%
[14]
  viability, T/C: 108%
[15]
  viability, T/C: 87%
[16]
  viability, T/C: 88.2%
[17]
  viability, T/C: 77.8%
[18]
  viability, T/C: 52.8%
[19]
  viability, T/C: 106%
[20]
  viability, T/C: 89.3%
[21]
  viability, T/C: 99.9%
[22]
  viability, T/C: 79.7%
[23]
  viability, T/C: 89.7%
[24]
  viability, T/C: 51%
[25]
  viability, T/C: 115%
[26]
  viability, T/C: 88%
[27]
  viability, T/C: 83.5%
[28]
  viability, T/C: 83.4%
[29]
  viability, T/C: 77.3%
[30]
  viability, T/C: 56.9%
[31]
  viability, T/C: 93.4%
[32]
  viability, T/C: 86.9%
[33]
  viability, T/C: 93.2%
[34]
  viability, T/C: 83.9%
[35]
  viability, T/C: 88.1%
[36]
  viability, T/C: 56.1%

## C=CC(=O)N1CCN(c2nc(=O)n(-c3c(C)ccnc3C(C)C)c3nc(-c4c(O)cccc4F)c(F)cc23)C(C)C1 (stereo unspecified) + COC1C(OC(N)=O)C(O)C(Oc2ccc3c(O)c(NC(=O)c4ccc(O)c(CC=C(C)C)c4)c(=O)oc3c2C)OC1(C)C
Second compound 0.0316 µM
  IC50: > 10 µM
Second compound 0.1 µM
  IC50: > 10 µM
Second compound 0.316 µM
  IC50: > 10 µM
Second compound 1 µM
  IC50: > 10 µM
Second compound 3.16 µM
  IC50: > 10 µM
Second compound 10 µM
  IC50: > 10 µM
[1]
  viability, T/C: 94%
[2]
  viability, T/C: 88.7%
[3]
  viability, T/C: 111%
[4]
  viability, T/C: 88.2%
[5]
  viability, T/C: 102%
[6]
  viability, T/C: 85.9%
[7]
  viability, T/C: 90.2%
[8]
  viability, T/C: 91.8%
[9]
  viability, T/C: 98.3%
[10]
  viability, T/C: 90.2%
[11]
  viability, T/C: 87%
[12]
  viability, T/C: 97%
[13]
  viability, T/C: 98%
[14]
  viability, T/C: 102%
[15]
  viability, T/C: 91.5%
[16]
  viability, T/C: 104%
[17]
  viability, T/C: 110%
[18]
  viability, T/C: 98.1%
[19]
  viability, T/C: 97.3%
[20]
  viability, T/C: 93.9%
[21]
  viability, T/C: 101%
[22]
  viability, T/C: 90.7%
[23]
  viability, T/C: 96.6%
[24]
  viability, T/C: 97.7%
[25]
  viability, T/C: 93.5%
[26]
  viability, T/C: 94.5%
[27]
  viability, T/C: 99.3%
[28]
  viability, T/C: 101%
[29]
  viability, T/C: 87.5%
[30]
  viability, T/C: 87.3%
[31]
  viability, T/C: 92.9%
[32]
  viability, T/C: 104%
[33]
  viability, T/C: 92.3%
[34]
  viability, T/C: 84.5%
[35]
  viability, T/C: 116%
[36]
  viability, T/C: 83.3%
